# Target: T1, Sex hormone-binding globulin (Homo sapiens, UniProt P04278)
# T1 sequence (P04278 whole entry): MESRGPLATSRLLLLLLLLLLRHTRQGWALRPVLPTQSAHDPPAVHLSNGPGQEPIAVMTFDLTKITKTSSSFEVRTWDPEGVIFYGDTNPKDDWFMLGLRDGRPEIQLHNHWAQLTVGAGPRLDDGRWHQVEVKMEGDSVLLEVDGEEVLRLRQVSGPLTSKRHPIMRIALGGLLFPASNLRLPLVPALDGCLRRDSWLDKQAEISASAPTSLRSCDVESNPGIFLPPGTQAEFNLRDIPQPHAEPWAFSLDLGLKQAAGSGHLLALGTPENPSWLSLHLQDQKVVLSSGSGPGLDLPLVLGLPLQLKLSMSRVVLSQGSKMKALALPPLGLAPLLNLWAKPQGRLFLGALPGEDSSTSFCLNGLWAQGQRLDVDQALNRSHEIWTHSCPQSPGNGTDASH
# Test: Displacement of [3H]5alpha dihydrotestosterone from human sex hormone binding globulin
row,Structure (SMILES),Kd [nM]
1,C[C@]12CC[C@H]3C(=CCc4cc(O)ccc43)[C@@H]1CC[C@@H]2O,2.4
2,C[C@]12CC[C@@H]3c4ccc(O)cc4C=C[C@H]3[C@@H]1CC[C@@H]2O,1.74
3,C[C@]12CC[C@H]3[C@@H](CC=C4C[C@@H](O)CC[C@@H]43)[C@@H]1CC[C@@H]2O,0.288
4,CC1(C)CC2=C3C=C[C@@]4(C)[C@@H](CC[C@]4(C)O)[C@@H]3CCC2=CC1=O,138
5,CC(C)(C)CC(C)(C)c1ccc(O)cc1,2140
6,COc1cc(/C=N/CCc2ccccc2)ccc1O,589
7,CCc1cc(C(=O)Cc2ccccc2C)c(O)cc1O,107
8,C[C@@H]1CC2=CC(=O)CC[C@]2(C)[C@@]2(F)CC[C@]3(C)[C@@H](O)CC[C@H]3[C@H]12,3.09
9,C#C[C@]1(O)CC[C@H]2[C@@H]3CCC4=C[C@H](O)CC[C@]4(C)C3C(=C)C[C@@]21CC (some centres undefined),21.4
10,Cc1c(Cc2ccccc2)c(=O)oc2c(C)c(O)ccc12,2190
11,C#C[C@]1(O)CC[C@H]2[C@@H]3CC[C@H]4CC(=O)CC[C@]4(C)[C@H]3CC[C@@]21C,0.182
12,C[C@]12CC[C@H]3[C@@H](CC[C@H]4CC(=O)C[C@H](CCCCCCN)[C@@]43C)[C@@H]1CC[C@@H]2O,29.5
13,C[C@@H]1CC2=CC(=O)C=C[C@]2(C)[C@H]2CC[C@]3(C)[C@@H](O)CC[C@H]3[C@H]12,4.37
14,C[C@H]1C[C@H]2[C@@H]3CC[C@H](O)[C@@]3(C)CC[C@@H]2[C@@]2(C)CCC(=O)C=C12,4.37
15,C[C@]12CC[C@H]3[C@@H](CCC4CC(=O)CC[C@@H]43)[C@@H]1CC[C@@H]2O (some centres undefined),4.37
16,C[C@@H]1C=C2CC(O)CC[C@]2(C)[C@H]2CC[C@@]3(C)[C@@H](CC[C@]3(C)O)[C@H]12 (some centres undefined),363
17,C[C@@H]1CC2=CC(=O)CC[C@@H]2[C@H]2CC[C@@]3(C)C(=CC[C@@H]3O)[C@@H]21,0.851
18,C[C@@]12CCC[C@H]1[C@@H]1CCc3cc(O)ccc3[C@H]1CC2,5.01
19,C#C[C@]1(O)CC[C@H]2[C@H]3[C@H](C(=C)C[C@@]21CC)[C@H]1CC[C@@H](O)C[C@@H]1C[C@H]3C,5.37
20,C[C@@H]1C[C@H]2C[C@@H](O)CC[C@]2(C)[C@H]2CC[C@]3(C)[C@@H](O)CC[C@H]3[C@H]12,1
21,C[C@@H]1C[C@H]2CC(=O)CC[C@]2(C)[C@H]2CC[C@@]3(C)[C@@H](CC[C@]3(C)O)[C@H]12,0.891
22,C[C@]12CCC(=O)C[C@@H]1CC[C@@H]1[C@@H]2[C@@H](O)C[C@@]2(C)[C@H]1CC[C@@]2(O)CCCN,11000
23,CC1=C2CC[C@H]3[C@@H]4CC[C@H](O)[C@@]4(C)CC[C@@H]3[C@@]2(C)CCC1=O,0.49
24,C[C@]12CC[C@@H]3c4cc(I)c(O)cc4CC[C@H]3[C@@H]1CC[C@@H]2O,0.479
25,Cc1c(O)ccc(C(=O)Cc2ccccc2Cl)c1O,2190

row,Structure (SMILES),Kd [nM]
1,Oc1ccc(-c2cc3ccc(O)cc3o2)cc1,832
2,C[C@@H]1CC2=CC(=O)C=C[C@]2(C)[C@H]2CC[C@@]3(C)[C@@H](CC[C@]3(C)O)[C@H]12,2.69
3,C[C@@H]1CC2=CC(=O)CC[C@]2(C)[C@H]2CC[C@]3(C)[C@@H](O)CC[C@H]3[C@H]12,1.95
4,C[C@]1(O)CC[C@H]2[C@@H]3CCC4=CC(=O)CC[C@]4(C)[C@@]3(F)C(=O)C[C@@]21C,5.89
5,COc1cc(C(=O)OC2CC3CCC2(C)C3(C)I)ccc1O (centres undefined),407
6,CC[C@H](C1CCC(O)CC1)[C@@H](CC)C1CCC(O)CC1 (some centres undefined),28800
7,CC(=O)[C@@]1(O)CC[C@H]2[C@@H]3CC=C4C[C@@H](O)CC[C@]4(C)[C@H]3CC[C@@]21C,437
8,C[C@]12CCC(=O)C[C@@H]1[C@@H](F)C[C@@H]1[C@@H]2CC[C@]2(C)[C@@H](O)CC[C@@H]12,0.891
9,CC[C@H](C1CCCCC1)[C@@H](CC)C1CCCCC1,2450
10,C#C[C@]1(O)CC[C@H]2[C@@H]3CC[C@H]4CC(=O)CC[C@@H]4[C@H]3C(=C)C[C@@]21CC,1.58
11,C[C@]12CCC3=C4CCC(=O)C=C4C=C[C@H]3[C@@H]1CC[C@@H]2O,1150
12,C#C[C@]1(O)CC[C@H]2[C@@H]3CCC4=C[C@@H](O)CC[C@]4(C)C3C(=C)C[C@@]21CC (some centres undefined),13.2
13,CC1(O)CC[C@H]2[C@@H]3CC=C4CC(O)CC[C@]4(C)[C@H]3CC[C@@]21C (some centres undefined),4.37
14,C#C[C@]1(O)CC[C@H]2[C@@H]3[C@H](C)C=C4CC(O)CC[C@]4(C)[C@H]3CC[C@@]21C (some centres undefined),363
15,C#C[C@]1(O)CC[C@H]2[C@@H]3CC=C4C[C@@H](O)CC[C@]4(C)[C@H]3CC[C@@]21C,1.23
16,C[C@@H]1C[C@H]2CC(=O)CC[C@]2(C)[C@H]2CC[C@]3(C)[C@@H](O)CC[C@H]3[C@H]12,0.417
17,C[C@]12CC[C@H]3[C@@H](CCC4=CC(=O)CC[C@@]43C)[C@@H]1C[C@@H](O)[C@@H]2O,12
18,C#C[C@]1(O)CC[C@H]2[C@@H]3CC[C@H]4CC(F)(F)CC[C@]4(C)[C@H]3CC[C@@]21C,4.37
19,C[C@@H]1CC2CC(=O)CC[C@@H]2[C@H]2CC[C@]3(C)[C@@H](O)CC[C@H]3[C@@H]21 (some centres undefined),3.47
20,C[C@@H]1C[C@H]2C[C@@H](O)CC[C@]2(C)[C@H]2CC[C@@]3(C)[C@@H](CC[C@]3(C)O)[C@H]12,3.47
21,O=C1C[C@@H](c2ccc(O)cc2)Oc2cc(O)cc(O)c21 (stereo in doubt; 82) [NARINGENIN],28200
22,O=C1C[C@@H](c2ccc(O)cc2)Oc2cc(O)cc(O)c21 (stereo in doubt; 90) [NARINGENIN],955
23,COc1cc2c(cc1O)CC[C@@H]1[C@@H]2CC[C@]2(C)[C@@H](O)CC[C@@H]12 [2-METHOXYESTRADIOL],0.832
24,CCCCCCCCCc1ccc(O)cc1 [4-NONYLPHENOL],1200
25,C[C@]12CCC(=O)C=C1CC[C@@H]1[C@@H]2[C@@H](O)C[C@]2(C=O)[C@@H](C(=O)CO)CC[C@@H]12 [ALDOSTERONE],4790

row,Structure (SMILES),Kd [nM]
1,C[C@]12CC[C@@H](O)C[C@@H]1CC[C@@H]1[C@@H]2CC[C@]2(C)[C@@H](O)CC[C@@H]12 [ANDROSTANDIOL],0.776
2,C[C@]12CCC(=O)C=C1CC[C@@H]1[C@@H]2CC[C@]2(C)C(=O)CC[C@@H]12 [ANDROSTENEDIONE],34.7
3,C[C@]12CC[C@@H](O)C[C@@H]1CC[C@@H]1[C@@H]2CC[C@]2(C)C(=O)CC[C@@H]12 [ANDROSTERONE],70.8
4,C[C@@H]1CC2=CC(=O)CC[C@]2(C)[C@H]2CC[C@@]3(C)[C@@H](CC[C@]3(C)O)[C@H]12 [BOLASTERONE],1.74
5,C[C@]12C[C@H](O)[C@H]3[C@@H](CCC4=CC(=O)CC[C@@]43C)[C@@H]1CC[C@@H]2C(=O)CO [CORTICOSTERONE],457
6,C[C@]12CCC(=O)C=C1CC[C@@H]1[C@@H]2C(=O)C[C@@]2(C)[C@H]1CC[C@]2(O)C(=O)CO [CORTISONE],372
7,C[C@]12CCC(=O)C=C1CC[C@@H]1[C@@H]2CC[C@@]2(C)[C@H]1CC[C@]2(O)C(=O)CO [CORTODOXONE],36.3
8,C#C[C@]1(O)CC[C@H]2[C@@H]3CCC4=Cc5oncc5C[C@]4(C)[C@H]3CC[C@@]21C [DANAZOL],6.31
9,C#C[C@]1(O)CC[C@H]2[C@@H]3CCC4=CCCC[C@@H]4[C@H]3C(=C)C[C@@]21CC [DESOGESTREL],251
10,C[C@]12CC[C@H]3[C@@H](CCC4=CC(=O)CC[C@@]43C)[C@@H]1CC[C@@H]2C(=O)CO [DESOXYCORTICOSTERONE],41.7
11,C[C@]12CCc3c(ccc4cc(O)ccc34)[C@@H]1CCC2=O [EQUILENIN],2.4
12,C[C@]12CC[C@H]3C(=CCc4cc(O)ccc43)[C@@H]1CCC2=O [EQUILIN],3.09
13,C[C@]12CC[C@@H]3c4ccc(OC(=O)c5ccccc5)cc4CC[C@H]3[C@@H]1CC[C@@H]2O [ESTRADIOL BENZOATE],1150
14,C[C@]12CC[C@@H]3c4ccc(O)cc4CC[C@H]3[C@@H]1C[C@@H](O)[C@@H]2O [ESTRIOL],234
15,C[C@]12CC[C@@H]3c4ccc(O)cc4CC[C@H]3[C@@H]1CCC2=O [ESTRONE],6.61
16,C#C[C@]1(O)CC[C@H]2[C@@H]3CCc4cc(O)ccc4[C@H]3CC[C@@]21C [ETHINYL ESTRADIOL],155
17,C#C[C@]1(O)CC[C@H]2[C@@H]3CCC4=CC(=O)CC[C@]4(C)[C@H]3CC[C@@]21C [ETHISTERONE],1.66
18,C[C@]12CC[C@@H](O)C[C@H]1CC[C@@H]1[C@@H]2CC[C@]2(C)C(=O)CC[C@@H]12 [ETIOCHOLANOLONE],708
19,C#C[C@]1(O)CC[C@H]2[C@@H]3CCC4=CC(=O)CC[C@@H]4[C@H]3C(=C)C[C@@]21CC [ETONOGESTREL],5.89
20,O=c1c(-c2ccc(O)cc2)coc2cc(O)cc(O)c12 [GENISTEIN],39800
21,C#C[C@]1(O)CC[C@H]2[C@@H]3CCC4=CC(=O)CCC4=C3C=C[C@@]21CC [GESTRINONE],7.76
22,C[C@]12CCC(=O)C=C1CC[C@@H]1[C@@H]2[C@@H](O)C[C@@]2(C)[C@H]1CC[C@]2(O)C(=O)CO [HYDROCORTISONE],631
23,CC(=O)[C@@]1(O)CC[C@H]2[C@@H]3CCC4=CC(=O)CC[C@]4(C)[C@H]3CC[C@@]21C [HYDROXYPROGESTERONE],100
24,COc1cc(C[C@H]2COC(=O)[C@@H]2Cc2ccc(O)c(OC)c2)ccc1O [MATAIRESINOL],309
